Reference: ChEMBL document CHEMBL1124182, “Design, synthesis, and properties of (4S)-7-(4-amino-2-substituted-pyrrolidin-1-yl)quinolone-3-carboxylic acids” (J Med Chem, 1988)
Values after ≈ are worked out from the molar mass of the structure shown.

Key:
Staphylococcus aureus [1] = test: In vitro Minimum inhibitory concentration against Staphylococcus aureus 45; type: functional
Acinetobacter = test: In vitro Minimum inhibitory concentration against Acinetobacter CMX 669; type: functional; settings: Acinetobacter; read-out: MIC
Streptococcus equinus = test: In vitro Minimum inhibitory concentration against Streptococcus bovis A5169; type: functional
Pseudomonas aeruginosa [2] = test: In vitro Minimum inhibitory concentration against Pseudomonas aeruginosa K799/WT; type: functional
Streptococcus agalactiae = test: In vitro Minimum inhibitory concentration against Streptococcus agalactiae CMX 508; type: functional
Klebsiella pneumoniae = test: In vitro Minimum inhibitory concentration against Klebsiella pneumoniae 8045; type: functional
Staphylococcus aureus [3] = test: In vitro Minimum inhibitory concentration against Staphylococcus aureus CMX 686B; type: functional
[4] = tested on: Staphylococcus epidermidis; test: In vitro Minimum inhibitory concentration against Staphylococcus epidermidis 3519; type: functional
Pseudomonas aeruginosa [5] = test: In vitro Minimum inhibitory concentration against Pseudomonas aeruginosa 5007; type: functional
Staphylococcus aureus [6] = test: In vitro Minimum inhibitory concentration against Staphylococcus aureus A5177; type: functional
Escherichia coli [7] = test: In vitro Minimum inhibitory concentration against Escherichia coli Juhl; type: functional
Staphylococcus aureus [8] = test: In vitro Minimum inhibitory concentration against Staphylococcus aureus ATCC 6538P; type: functional
Streptococcus pyogenes = test: In vitro Minimum inhibitory concentration against Streptococcus pyogenes 930; type: functional
Enterococcus faecium = test: In vitro Minimum inhibitory concentration against Streptococcus faecium ATCC 8043; type: functional
Staphylococcus aureus [9] = test: In vivo efficacy against Staphylococcus aureus 10649, in mouse protection tests when administered subcutaneously (sc); type: functional
Mus musculus [10] = test: In vivo efficacy against Escherichia coli Juhl, in mouse protection tests when administered perorally (po); type: functional
[11] = Partition coefficient (logP); type: physicochemical; settings: octanol/water
Mus musculus [12] = test: In vivo efficacy against Escherichia coli Juhl, in mouse protection tests when administered subcutaneously (sc); type: functional
Escherichia coli [13] = test: Supercoiling inhibition assay using purified DNA gyrase isolated from Escherichia coli H560; type: functional; settings: read-out: I50
Staphylococcus aureus [14] = test: In vivo efficacy against Staphylococcus aureus 10649, in mouse protection tests when administered perorally (po); type: functional
[15] = Compound was evaluated for the solubility in Ringer's buffer solution; type: ADME
Mus musculus [16] = test: Blood level was evaluated by a disk agar diffusion assay at 0.5 hr when administered at a peroral dose of 25 mg/kg; type: functional; settings: route oral
Mus musculus [17] = test: Blood level was evaluated by a disk agar diffusion assay at 1.0 hr when administered at a peroral dose of 25 mg/kg; type: functional; settings: route oral
Mus musculus [18] = test: Blood level was evaluated by a disk agar diffusion assay at 2.0 hr when administered at a peroral dose of 25 mg/kg; type: functional; settings: route oral
Mus musculus [19] = test: Blood level was evaluated by a disk agar diffusion assay at 24.0 hr when administered at a peroral dose of 25 mg/kg; type: functional; settings: route oral
Mus musculus [20] = test: Blood level was evaluated by a disk agar diffusion assay at 3.0 hh when administered at a peroral dose of 25 mg/kg; type: functional; settings: route oral
Mus musculus [21] = test: Blood level was evaluated by a disk agar diffusion assay at 6.0 hr when administered at a peroral dose of 25 mg/kg; type: functional; settings: route oral
[22] = Blood level was evaluated by a disk agar diffusion assay at 3.0 hh when administered at a peroral dose of 100 mg/kg; type: ADME, organism-based; parameters: dose 100 mg/kg, route oral; settings: mouse, po, read-out: Blood level
[23] = Ringer's buffer solution, read-out: Solubility

Row | SMILES | MIC (Staphylococcus aureus [1]) [µg/mL] | MIC (Acinetobacter) [µg/mL] | MIC (Streptococcus equinus) [µg/mL] | MIC (Pseudomonas aeruginosa [2]) [µg/mL] | MIC (Streptococcus agalactiae) [µg/mL] | MIC (Klebsiella pneumoniae) [µg/mL] | MIC (Staphylococcus aureus [3]) [µg/mL] | MIC [4] [µg/mL] | MIC (Pseudomonas aeruginosa [5]) [µg/mL] | MIC (Staphylococcus aureus [6]) [µg/mL] | MIC (Escherichia coli [7]) [µg/mL] | MIC (Staphylococcus aureus [8]) [µg/mL] | MIC (Streptococcus pyogenes) [µg/mL] | MIC (Enterococcus faecium) [µg/mL] | logP [11] | IC50 (Escherichia coli [13]) [µg/mL] | solubility [15, 23] [µg/mL] | also measured
1 | O=C(O)c1cn(-c2ccc(F)cc2F)c2nc(N3C[C@@H]4C[C@H]3CN4)c(F)cc2c1=O | 0.78 (≈ 1.87 µM) | 0.39 (≈ 0.937 µM) | 1.56 (≈ 3.75 µM) | 0.39 (≈ 0.937 µM) | 0.78 (≈ 1.87 µM) | 0.05 (≈ 0.12 µM) | 0.2 (≈ 0.48 µM) | 0.39 (≈ 0.937 µM) | 0.39 (≈ 0.937 µM) | 0.39 (≈ 0.937 µM) | 0.05 (≈ 0.12 µM) | 0.1 (≈ 0.24 µM) | 0.78 (≈ 1.87 µM) | 0.39 (≈ 0.937 µM) |  |  |  | 
2 | N[C@H]1CC(CO)N(c2cc3c(cc2F)c(=O)c(C(=O)O)cn3-c2ccc(F)cc2F)C1 (stereo partly drawn) | 1.56 (≈ 3.6 µM) | 6.2 (≈ 14.3 µM) | 1.56 (≈ 3.6 µM) | 0.39 (≈ 0.9 µM) | 0.78 (≈ 1.8 µM) | 0.78 (≈ 1.8 µM) | 0.39 (≈ 0.9 µM) | 0.78 (≈ 1.8 µM) | 0.78 (≈ 1.8 µM) | 0.78 (≈ 1.8 µM) | 0.78 (≈ 1.8 µM) | 0.1 (≈ 0.231 µM) | 0.39 (≈ 0.9 µM) | 0.78 (≈ 1.8 µM) | -0.98 | 0.4 (≈ 0.923 µM) | 60 (≈ 138 µM) | ED50 (Staphylococcus aureus [9]): 0.7 mg/kg; ED50 (Mus musculus [10]): > 16 mg/kg; ED50 (Mus musculus [12]): 5.9 mg/kg; ED50 (Staphylococcus aureus [14]): 5.4 mg/kg
3 | N[C@H]1CC(CF)N(c2nc3c(cc2F)c(=O)c(C(=O)O)cn3-c2ccc(F)cc2F)C1 (stereo partly drawn) | 0.1 (≈ 0.229 µM) | 0.39 (≈ 0.894 µM) | 0.78 (≈ 1.79 µM) | 0.78 (≈ 1.79 µM) | 0.39 (≈ 0.894 µM) | 0.1 (≈ 0.229 µM) | 0.05 (≈ 0.115 µM) | 0.2 (≈ 0.458 µM) | 0.78 (≈ 1.79 µM) | 0.1 (≈ 0.229 µM) | 0.1 (≈ 0.229 µM) | 0.05 (≈ 0.115 µM) | 0.2 (≈ 0.458 µM) | 0.2 (≈ 0.458 µM) |  | 0.75 (≈ 1.72 µM) |  | 
4 | N[C@H]1C[C@@H](CO)N(c2cc3c(cc2F)c(=O)c(C(=O)O)cn3-c2ccc(F)cc2F)C1 | 12.5 (≈ 28.8 µM) | 25 (≈ 57.7 µM) | 50 (≈ 115 µM) | 12.5 (≈ 28.8 µM) | 12.5 (≈ 28.8 µM) | 3.1 (≈ 7.15 µM) | 6.2 (≈ 14.3 µM) | 12.5 (≈ 28.8 µM) | 12.5 (≈ 28.8 µM) | 6.2 (≈ 14.3 µM) | 3.1 (≈ 7.15 µM) | 1.56 (≈ 3.6 µM) | 25 (≈ 57.7 µM) | 25 (≈ 57.7 µM) |  | 10 (≈ 23.1 µM) | 60 (≈ 138 µM) | 
5 | O=C(O)c1cn(-c2ccc(F)cc2)c2cc(N3CCC[C@H]3CO)c(F)cc2c1=O | 3.1 (≈ 7.74 µM) | > 100 | 100 (≈ 250 µM) | > 100 | 100 (≈ 250 µM) | 25 (≈ 62.4 µM) | 3.1 (≈ 7.74 µM) | 3.1 (≈ 7.74 µM) | > 100 | 3.1 (≈ 7.74 µM) | 50 (≈ 125 µM) | 3.1 (≈ 7.74 µM) | 50 (≈ 125 µM) | > 100 |  |  |  | 
6 | C[C@@H]1C[C@H](N)CN1c1cc2c(cc1F)c(=O)c(C(=O)O)cn2-c1ccc(F)cc1F | 0.78 (≈ 1.87 µM) | 3.1 (≈ 7.43 µM) | 6.2 (≈ 14.9 µM) | 6.2 (≈ 14.9 µM) | 6.2 (≈ 14.9 µM) | 0.78 (≈ 1.87 µM) | 0.39 (≈ 0.934 µM) | 0.78 (≈ 1.87 µM) | 5 (≈ 12 µM) | 0.78 (≈ 1.87 µM) | 0.78 (≈ 1.87 µM) | 0.39 (≈ 0.934 µM) | 1.56 (≈ 3.74 µM) | 3.1 (≈ 7.43 µM) | 0.03 | 18 (≈ 43.1 µM) | 182 (≈ 436 µM) | 
7 | O=C(O)c1cn(C2CC2)c2cc(N3CCNCC3)c(F)cc2c1=O [CIPROFLOXACIN] | 0.78 (≈ 2.35 µM) | 0.39 (≈ 1.18 µM) | 1.56 (≈ 4.71 µM) | 0.2 (≈ 0.604 µM) | 0.78 (≈ 2.35 µM) | 0.02 (≈ 0.0604 µM) | 0.39 (≈ 1.18 µM) | 0.78 (≈ 2.35 µM) | 0.39 (≈ 1.18 µM) | 0.39 (≈ 1.18 µM) |  | 0.2 (≈ 0.604 µM) |  | 0.39 (≈ 1.18 µM) |  | 0.9 (≈ 2.72 µM) |  | ED50 (Staphylococcus aureus [9]): 1.6 mg/kg; Blood level (Mus musculus [16]): 1.3 µg/mL; Blood level (Mus musculus [17]): 0.8 µg/mL; ED50 (Mus musculus [10]): 1.9 mg/kg; Blood level (Mus musculus [18]): 0.3 µg/mL; ED50 (Mus musculus [12]): 0.2 mg/kg; Blood level (Mus musculus [19]): 0 µg/mL; Blood level (Mus musculus [20]): 0.1 µg/mL; ED50 (Staphylococcus aureus [14]): 15.5 mg/kg; Blood level (Mus musculus [21]): 0 µg/mL
8 | NC1CCN(c2nc3c(cc2F)c(=O)c(C(=O)O)cn3-c2ccc(F)cc2F)C1 (stereo not drawn) [TOSUFLOXACIN] | 0.05 (≈ 0.124 µM) | 0.05 (≈ 0.124 µM) | 0.78 (≈ 1.93 µM) | 0.39 (≈ 0.965 µM) | 0.2 (≈ 0.495 µM) | 0.01 (≈ 0.0247 µM) | 0.05 (≈ 0.124 µM) | 0.1 (≈ 0.247 µM) | 0.78 (≈ 1.93 µM) | 0.05 (≈ 0.124 µM) | 0.02 (≈ 0.0495 µM) | 0.02 (≈ 0.0495 µM) | 0.1 (≈ 0.247 µM) | 0.2 (≈ 0.495 µM) | -0.46 | 0.4 (≈ 0.989 µM) |  | concentration at 3 h [22]: 1700 ng/mL; solubility ([15]; buffer): 8 µg/mL (≈ 19.8 µM)
